Patent publication US20080058271A1, “Prevention of primary sjogren' s Syndrome by ICA69 deficiency” (priority 2002, published 2008)
Ends that are not written are not given here.

Assays:
[1] = test system: NOD mouse sialoadenitis (submandibular gland mononuclear foci); settings: single i.p. 200 mg ABBOS in IFA, 10 wk old NOD females
[2] = test system: NOD mouse pSS (salivary disease); settings: instantly disclosed protocol
[3] = test system: peripheral blood mononuclear cells (PBMC); experiment: Human T cell proliferative responses in PBMC; format: cell-based; settings: for T cell responses to control antigens (stimulation index): PBMC of primary SS, SLE patients and healthy controls; for T cell responses in patients with SLE and in healthy controls / patients with primary SS with positive T cell responses: PBMC; for T cell responses in patients with SLE and in healthy controls: SLE n=6, healthy controls n=12; for patients with primary SS with positive T cell responses: n=9, P 0.008 vs. SLE, P 0.004 vs. healthy controls
Procedure: FIG. 7.(A) T cell responses to ICA69, BSA, Tep69, and ABBOS were analyzed in patients with primary SS (n=9) SLE patients (n=6) or healthy controls (n=12). Positive responses to tetanus toxoid (TT) contrasted with negative responses to OVA, actin or the type 1 diabetes-associated GAD65 peptide, p555. Data are expressed as stimulation index (SI, experimental/background cpm, as described herein). Background counts were similar in all cohorts (mean±SD: 1154±354 cpm). FIG. 8. Autoantibodies to ICA69 (1 μg protein/lane) were detected in Western blots of sera (1 to 1000 dilution) from patients with pSS (lanes 1-5) but not in controls (lanes 6-8).
Blood samples were obtained from patients (n=15) with primary SS or SLE at the Arthritis Center at Toronto Western Hospital and from healthy, adult volunteers through ethics-board approved consent (n=12). pSS patients were female, had documented xerostomia and xerophthalmia and met San Diego disease criteria. All were anti-Ro antibody positive, 6 had anti-fodrin autoantibodies and all had minor salivary gland biopsy focus scores of >5. Healthy controls (n=12) of similar age and gender profile were recruited from staff. Fresh blood was used for T cell studies. In immunoblotting experiments, sera from patients and controls were diluted at 1:1000 and blotted on nitrocellulose containing […] of recombinant ICA69 protein to detect the presence of anti-ICA69 antibodies.
(§1) NOD lymph-node, spleen and human peripheral blood T cell responses were measured with three slightly different protocols. Draining lymph node cells from 10 week old NOD females were pooled. 2×10^5 lymph node cells along with 2×10^5 irradiated (1100 rad) syngeneic spleen cells were cultured in serum-free AIM-V media (Life Technologies, Mississauga, Ontario, Canada) in the presence of protein or peptide antigen. Proteins (ICA69, BSA or OVA) were used at concentrations of […], peptides (Tep69, ABBOS) at […]. After 72 hr of incubation, cultures were pulsed overnight with […] of [^3H]thymidine, harvested and subjected to liquid scintillation counting. Experiments were repeated three times with similar results, each with lymph nodes pooled from groups of 4-7 mice. Proliferation assays with spleen cells used 4×10^5 responding cells/well and no irradiated splenocytes. For the detection of human T cell responses, Ficoll-Hypaque purified peripheral blood mononuclear cells (PBMC) were cultured at 10^5 cells/well for one week in serum-free Hybrimax 2897 medium (Sigma) supplemented with human IL-2 (10 U/well) and 0.01-10 mg of antigen^15. This assay performed well in a large, blinded study and in the first international T cell workshop of the Immunology of Diabetes Society^22.
Proliferative T cell responses were expressed as stimulation index (SI, experimental/control cpm). SI's greater than the mean SI in OVA-stimulated cultures plus 3 SD were deemed positive^15. Numeric data were compared by Mann-Whitney tests, Fisher's exact test was used to analyze tables. All P values were two-tailed and significance was set at 5%. Figures present mean values plus lSD.
To determine if ICA69 was an autoimmune target in patients with primary SS, we first measured T cell responses to ICA69 and Tep69 in PBMC from patients with primary SS (n=9), systemic lupus erythematosus (SLE, n=6) and age-matched healthy controls (n=12) (FIG. 7A).

NOD lymph node cells = experiment: T cell proliferative responses in draining lymph node cells; format: cell-based, mouse; settings: 10 week old NOD females, pooled lymph node cells
Procedure: FIG. 2. T cell proliferative responses to ICA69, its dominant epitope, Tep69, BSA, and its dominant NOD mouse epitope, ABBOS, were measured in lymph nodes draining the pancreas (A), and submandibular glands (B), or lymph nodes draining the lower (C) or upper (D) extremities. Gray columns: control cultures stimulated with ovalbumin (OVA) or Medium (MED) only. To obtain sufficient cell numbers, lymph node cells were pooled from seven mice. One of three similar data sets is shown.
as §1
This phenotype could reflect a role for ICA69 as an autoantigen or a role for ICA69 protein-function. To begin an analysis of these two alternatives, we measured T cell autoreactivity to ICA69 and its immunodominant T cell epitope, Tep69, in 10 week old NOD females. Proliferative in vitro recall responses were assessed in draining lymph nodes from various tissues, in order to localize where T cell tolerance to ICA69 was lost. […] Spleen cell responses to ICA69, Tep69, BSA and ABBOS were present as previously described by us^21 and others^24 (data not shown, but for example see FIG. 3F).

MHC class II = settings: reference 21; cited from earlier work

Row | Molecule | T cell responses to control antigens (stimulation index) [3] | T cell proliferative responses in pancreatic and submandibular lymph node cells (NOD lymph node cells) | T cell proliferative responses in popliteal or axillary lymph nodes (NOD lymph node cells) | T cell responses in patients with SLE and in healthy controls [3] | patients with primary SS with positive T cell responses [3] | other results
1 | FKADEKKFWGKYLYE [ABBOS, FKADEKKFWGKYLYE] | – | – | – | – | – | mice with moderate disease exacerbation [1]: 12%; mice with moderate disease exacerbation (of mice analyzed) [1]: 2/17; disease acceleration with the optimized treatment protocol [2]: no acceleration
2 | actin | negative | – | – | – | – | –
3 | OVA: Ovalbumin (Sigma), control antigen | negative | – | – | – | – | –
4 | TT: tetanus toxoid, positive control antigen | Positive | – | – | – | – | –
5 | AFIKATGKKEDE [Tep69] | – | detected | not in popliteal or axillary lymph nodes | absent | 8 of 9 | MHC class II affinity (MHC class II): very low
6 | ICA69: Human recombinant islet cell autoantigen 69 kDa (protein) MSGHKCSYPWDLQDRYAQDKSVVNKMQQKYWETKQAFIKATGKKEDEHVVASDADLDAKLELFHSIQRTCLDLSKAIVLYQKRICFLSQEENELGKFLRSQGFQDKTRAGKMMQATGKALCFSSQQRLALRNPLCRFHQEVETFRHRAISDTWLTVNRMEQCRTEYRGALLWMKDVSQELDPDLYKQMEKFRKVQTQVRLAKKNFDKLKMDVCQKVDLLGASRCNLLSHMLATYQTTLLHFWEKTSHTMAAIHESFKGYQPYEFTTLKSLQDPMKKLVEKEEKKKINQQESTDAAVQEPSQLISLEEENQRKESSSFKTEDGKSILSALDKGSTHTACSGPIDELLDMKSEEGACLGPVAGTPEPEGADKDDLLLLSEIFNASSLEEGEFSKEWAAVFGDGQVKEPVPTMALGEPDPKAQTGSGFLPSQLLDQNMKDLQASLQEPAKAASDLTAWFSLFADLDPLSNPDAVGKTDKEHELLNA | – | detected | not in popliteal or axillary lymph nodes | absent | 8 of 9 | –
